Results published in US12492173B2, “Herbicidal substituted N-tetrazolyl aryl carboxamides” (Bayer Aktiengesellschaft, priority 2019, dated 2025).

What was measured:
Type in all cases: in vivo
[1] = system: Amaranthus retroflexus; assay: Pre-emergence herbicidal action, AMARE; design: key to Herbicidal action against AMARE: % activity: 100 = plants have died, 0 = like control plants; settings: for herbicidal action AMARE / herbicidal activity AMARE: dosage 320 g/ha; for herbicidal activity AMARE: scored visually after 3 weeks vs untreated controls (100% = plants have died); for Herbicidal action against AMARE: comparative experiment, 80 g of a.i./ha
Outline: (§1)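 Weed seeds sown in sandy loam and covered; WP or EC formulations applied to soil surface as aqueous suspension or emulsion at 600 to 800 l/ha with 0.2% wetting agent. Greenhouse-grown, with damage scored visually after 3 weeks versus untreated controls (0% = like control, 100% = plants dead).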

[2] = system: Polygonum convolvulus; assay: Pre-emergence herbicidal action, POLCO; settings: dosage 320 g/ha; for herbicidal activity POLCO: scored visually after 3 weeks vs untreated controls (100% = plants have died)
Outline: as §1

[3] = system: Matricaria inodora; assay: Post-emergence herbicidal action, MATIN; design: key: % herbicidal action vs untreated; 100 = plants died, 0 = like control
Outline: (§2)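 One-leaf-stage weeds, raised from seed in greenhouse sandy loam, received a single foliar spray of compound as wettable powder or emulsion concentrate with 0.2% wetting agent added. Growth continued under optimal conditions for about 3 weeks before percent damage was scored by eye against controls.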

[4] = system: Stellaria media; assay: Post-emergence herbicidal action, STEME; design: key: % herbicidal action vs untreated; 100 = plants died, 0 = like control
Outline: as §2

[5] = system: Pharbitis purpurea; assay: Pre-emergence herbicidal action, PHBPU; settings: dosage 320 g/ha, scored visually after 3 weeks vs untreated controls (100% = plants have died)
Outline: as §1

[6] = system: Avena fatua; assay: Post-emergence herbicidal action, AVEFA; design: key: % herbicidal action vs untreated; 100 = plants died, 0 = like control
Outline: as §2

[7] = system: Polygonum convolvulus; assay: Post-emergence herbicidal action, POLCO; settings: for Herbicidal action against POLCO: comparative experiment
Outline: as §2

[8] = comparative experiment, post-emergence, 20 g of a.i./ha
[9] = post-emergence, 20 g of a.i./ha

Row | Structure (SMILES) | herbicidal action AMARE [1] [%] | herbicidal action MATIN ([3]; Dosage 80 g/ha) | herbicidal action STEME ([4]; Dosage 80 g/ha) | herbicidal action AVEFA ([6]; Dosage 80 g/ha) | herbicidal action POLCO ([7]; Dosage 80 g/ha) | also measured
1 | Cc1c(C(=O)Nc2nnnn2C)ccc(C(F)F)c1C[S+](C)[O-] (centres unmarked) [Example 1-108] | 100 | 100 | 100 |  |  | herbicidal action POLCO [2]: 90%
2 | Cn1nnnc1NC(=O)c1ccc(C(F)(F)F)c(CSCC(F)(F)F)c1Cl [Example 1-311] |  | 100 | 100 | 100 |  | herbicidal activity AMARE [1]: 100%; herbicidal activity PHBPU [5]: 100%
3 | CCSCc1c(C(F)(F)F)ccc(C(=O)Nc2nnnn2CC)c1C [Example 2-86] | 100 |  |  |  |  | herbicidal action POLCO [2]: 80%; herbicidal action AVEFA ([6]; post-emergence, dosage 80 g/ha): 100%; herbicidal action MATIN ([3]; post-emergence, dosage 80 g/ha): 100%; herbicidal action POLCO ([7]; post-emergence, dosage 80 g/ha): 100%; herbicidal action STEME ([4]; post-emergence, dosage 80 g/ha): 100%
4 | COc1c(C(=O)Nc2nnnn2C)ccc(Cl)c1CSC [Example 1-570] | 100 |  |  |  |  | herbicidal action POLCO [2]: 80%; Herbicidal action against MATIN ([3]; post-emergence, dosage 80 g/ha): 90; Herbicidal action against POLCO ([7]; post-emergence, 5 g of a.i./ha): 30; Herbicidal action against STEME ([4]; post-emergence, dosage 80 g/ha): 80
5 | CSCc1c(C)ccc(C(=O)Nc2nnnn2C)c1Cl [Example 1-287] | 90 | 100 | 100 | 80 |  | 
6 | CCn1nnnc1NC(=O)c1ccc(C(F)(F)F)c(CS(=O)(=O)CC)c1Cl [Example 2-301] | 100 | 90 | 100 | 90 | 90 | 
7 | CCCn1nnnc1NC(=O)c1ccc(S(C)(=O)=O)c(CSC)c1C [Example 3-37] | 100 | 90 | 100 | 80 |  | 
8 | CCn1nnnc1NC(=O)c1ccc(S(C)(=O)=O)c(CS(C)(=O)=O)c1Cl [Example 2-280] | 100 |  |  |  |  | Herbicidal action against AVEFA ([6]; post-emergence, dosage 80 g/ha): 90; Herbicidal action against STEME ([4]; post-emergence, dosage 80 g/ha): 100
9 | CCCn1nnnc1NC(=O)c1ccc(C(F)(F)F)c(CS(C)(=O)=O)c1Br [Example 3-382] | 100 | 90 | 100 |  | 80 | 
10 | CCCn1nnnc1NC(=O)c1ccc(C(F)(F)F)c(CSCC(F)(F)F)c1Cl [Example 3-311] | 100 | 100 | 100 | 100 | 80 | 
11 | CCn1nnnc1NC(=O)c1ccc(Cl)c(CSC)c1Cl [Example 2-559] | 100 | 100 | 100 | 100 | 80 | 
12 | CCCn1nnnc1NC(=O)c1ccc(S(C)(=O)=O)c(CS(C)(=O)=O)c1C [Example 3-39] | 100 | 80 | 90 | 80 |  | 
13 | CCCn1nnnc1NC(=O)c1ccc(C(F)(F)F)c(CSC)c1SC [Example 3-161] | 100 | 90 | 100 | 90 | 80 | 
14 | CCCn1nnnc1NC(=O)c1ccc(C(F)(F)F)c(CSCC)c1C [Example 3-86] | 100 | 90 | 100 | 80 | 80 | herbicidal action POLCO [2]: 90%
15 | CCn1nnnc1NC(=O)c1ccc(C(F)F)c(CSC)c1SC [Example 2-170] |  | 100 | 100 |  | 90 | herbicidal activity AMARE [1]: 100%; herbicidal activity POLCO [2]: 100%
16 | CCn1nnnc1NC(=O)c1ccc(C(F)(F)F)c(CSCC(F)(F)F)c1Cl [Example 2-311] |  | 100 | 100 | 90 | 90 | herbicidal activity AMARE [1]: 100%; herbicidal activity POLCO [2]: 80%
17 | CCn1nnnc1NC(=O)c1ccc(C(F)(F)F)c(CS(=O)(=O)CC)c1C [Example 2-88] | 100 | 90 | 100 | 90 |  | 
18 | CCS(=O)(=O)c1c(C(F)(F)F)ccc(C(=O)Nc2nnnn2C)c1Br [Example V-13, 2-bromo-3-(ethylsulfonyl)-N-(1-methyl-1-1H-tetrazol-5-yl)-4-(trifluoromethyl)benzamide, reference compound] |  |  |  |  |  | Herbicidal action against AMARE [1]: 0; Herbicidal action against AVEFA [6, 8]: 0; Herbicidal action against MATIN [3, 8]: 0; Herbicidal action against POLCO [7, 9]: 0; Herbicidal action against STEME [4, 8]: 0
19 | CCCn1nnnc1NC(=O)c1ccc(C(F)(F)F)c(C[S+](C)[O-])c1OC (centres unmarked) [Example 3-135] | 100 | 100 | 100 | 100 | 100 | herbicidal action POLCO [2]: 90%
20 | C=CCSCc1c(C(F)(F)F)ccc(C(=O)Nc2nnnn2CCC)c1Cl [Example 3-308] |  | 100 | 100 | 100 |  | herbicidal activity AMARE [1]: 100%; herbicidal activity PHBPU [5]: 100%
21 | CCn1nnnc1NC(=O)c1ccc(C(F)F)c(C[S+](C)[O-])c1C (centres unmarked) [Example 2-108] | 100 | 100 | 100 |  |  | 
22 | Cc1ccc(C(=O)Nc2nnnn2C)c(Cl)c1C[S+](C)[O-] (racemic) [Example 1-288] | 100 | 100 | 100 |  |  | herbicidal action POLCO [2]: 80%
23 | CCCn1nnnc1NC(=O)c1ccc(I)c(C[S+](C)[O-])c1Cl (centres unmarked) [Example 3-363] | 100 | 100 | 100 | 80 | 90 | 
24 | COc1c(C(=O)Nc2nnnn2C)ccc(C(F)(F)F)c1C[S+](C)[O-] (centres unmarked) [Example 1-135] | 100 | 100 | 90 |  |  | 
25 | CSCc1c(Cl)ccc(C(=O)Nc2nnnn2C)c1Cl [Example 1-559] | 100 |  |  |  |  | herbicidal action AVEFA ([6]; post-emergence, dosage 80 g/ha): 100%; herbicidal action MATIN ([3]; post-emergence, dosage 80 g/ha): 100%; herbicidal action STEME ([4]; post-emergence, dosage 80 g/ha): 100%
26 | CCCn1nnnc1NC(=O)c1ccc(C(F)(F)F)c(CS(=O)(=O)CC)c1Cl [Example 3-301] | 100 | 100 | 100 | 90 | 100 | 
27 | CCS(=O)(=O)Cc1c(C(F)(F)F)ccc(C(=O)Nc2nnnn2C)c1Br [Example 1-385] |  |  |  |  |  | Herbicidal action against AMARE [1]: 100; herbicidal activity AMARE [1]: 100%; herbicidal activity POLCO [2]: 90%; Herbicidal action against AVEFA [6, 8]: 80; herbicidal action AVEFA ([6]; post-emergence, dosage 80 g/ha): 100%; Herbicidal action against MATIN [3, 8]: 90; herbicidal action MATIN ([3]; post-emergence, dosage 80 g/ha): 90%; Herbicidal action against POLCO [7, 9]: 70; herbicidal action POLCO ([7]; post-emergence, dosage 80 g/ha): 90%; Herbicidal action against STEME [4, 8]: 100; herbicidal action STEME ([4]; post-emergence, dosage 80 g/ha): 100%
